# Results reported in US20240132484A1, “BROAD SPECTRUM ANTIVIRAL COMPOUNDS TARGETING THE SKI COMPLEX” (priority 2020, published 2024).
# Several values for one entry are separate records, joined by “and”; a condition that tells them apart may be missing. Identical values can stand only once. Like-named read-outs stand apart in the source and are kept apart here.
# Experiments:
# cells (nuclei count) = conditions: for Relative cell count to DMSO controls, Average 1 μM / Relative cell count to DMSO controls, Average 5 μM / Relative cell count to DMSO controls, Average 10 μM / Relative cell count to DMSO controls, Average 25 μM / Relative cell count to DMSO controls, Average 50 μM: toxicity data, 100=DMSO control; for Toxicity Data, Average, Mean: average of Exp 1-3 (SMW475, SMW477, SMW478); for Relative cell count to DMSO controls, Average (for correlation analysis): average value over the 5 tested concentrations (1 to 50 uM); for Toxicity Data, Average, Mean percentage relative to DMSO control: Average of Exp 1 (SMW491) and Exp 2 (SMW492)
# SARS2 = format: cell-based, SARS-CoV-2; conditions: for Percentage Inhibition Average 1 μM / Screening data (Relative infection to DMSO controls) Average 1 μM: SARS2, 1 μM; for Screening data (Relative infection to DMSO controls) Average 1 μM / Screening data (Relative infection to DMSO controls) Average 5 μM / Screening data (Relative infection to DMSO controls) Average 10 μM / Screening data (Relative infection to DMSO controls) Average 25 μM / Screening data (Relative infection to DMSO controls) Average 50 μM / Average (relative infection to DMSO over the 5 tested concentrations): 100=DMSO control; for Percentage Inhibition Average 5 μM / Screening data (Relative infection to DMSO controls) Average 5 μM: SARS2, 5 μM; for Percentage Inhibition Average 10 μM / Screening data (Relative infection to DMSO controls) Average 10 μM: SARS2, 10 μM; for Percentage Inhibition Average 25 μM / Screening data (Relative infection to DMSO controls) Average 25 μM: SARS2, 25 μM; for Percentage Inhibition Average 50 μM / Screening data (Relative infection to DMSO controls) Average 50 μM: SARS2, 50 μM; for Average (relative infection to DMSO over the 5 tested concentrations): SARS2, average over 1 to 50 uM
compound,measurement,setting,value
CCN(CC)CCN(Cc1cccs1)C(=O)c1cccs1 [SILCS34],"Relative cell count to DMSO controls, Average 1 μM",cells (nuclei count),102.47
same,"Relative cell count to DMSO controls, Average 5 μM",cells (nuclei count),99.62
same,"Relative cell count to DMSO controls, Average 10 μM",cells (nuclei count),91
same,"Relative cell count to DMSO controls, Average 25 μM",cells (nuclei count),89.42
same,"Relative cell count to DMSO controls, Average 50 μM",cells (nuclei count),67.85
same,"Toxicity Data, Average, Mean","cells (nuclei count); n 9, 1 uM",102.47%
same,"Toxicity Data, Average, Mean","cells (nuclei count); n 9, 5 uM",99.62%
same,"Toxicity Data, Average, Mean","cells (nuclei count); n 9, 10 uM",91.00%
same,"Toxicity Data, Average, Mean","cells (nuclei count); n 9, 25 uM",89.42%
same,"Toxicity Data, Average, Mean","cells (nuclei count); n 9, 50 uM",67.85%
same,"Relative cell count to DMSO controls, Average (for correlation analysis)",cells (nuclei count),90.07
same,Percentage Infection Relative to Appropriate DMSO Control with Avg Background Subtraction,"SARS2; Exp 1 (SMW475), 1 uM, Greiner Celigo plates",84.46% and 79.06% and 78.77%
same,Percentage Infection Relative to Appropriate DMSO Control with Avg Background Subtraction,"SARS2; Exp 1 (SMW475), 5 uM, Greiner Celigo plates",83.89% and 91.52% and 85.89%
same,Percentage Infection Relative to Appropriate DMSO Control with Avg Background Subtraction,"SARS2; Exp 1 (SMW475), 10 uM, Greiner Celigo plates",120.42% and 77.92% and 112.44%
same,Percentage Infection Relative to Appropriate DMSO Control with Avg Background Subtraction,"SARS2; Exp 1 (SMW475), 25 uM, Greiner Celigo plates",73.54% and 67.42% and 88.43%
same,Percentage Infection Relative to Appropriate DMSO Control with Avg Background Subtraction,"SARS2; Exp 1 (SMW475), 50 uM, Greiner Celigo plates",98.27% and 86.62% and 67.73%
same,Percentage Infection Relative to Appropriate DMSO Control with Avg Background Subtraction,"SARS2; Exp 2 (SMW477), 1 uM, Greiner Celigo plates",117.81% and 129.29% and 121.32%
same,Percentage Infection Relative to Appropriate DMSO Control with Avg Background Subtraction,"SARS2; Exp 2 (SMW477), 5 uM, Greiner Celigo plates",137.43% and 146.89% and 126.80%
same,Percentage Infection Relative to Appropriate DMSO Control with Avg Background Subtraction,"SARS2; Exp 2 (SMW477), 10 uM, Greiner Celigo plates",142.94% and 144.38% and 155.80%
same,Percentage Infection Relative to Appropriate DMSO Control with Avg Background Subtraction,"SARS2; Exp 2 (SMW477), 25 uM, Greiner Celigo plates",109.38% and 111.61% and 103.44%
same,Percentage Infection Relative to Appropriate DMSO Control with Avg Background Subtraction,"SARS2; Exp 2 (SMW477), 50 uM, Greiner Celigo plates",62.30% and 66.46% and 58.63%
same,Percentage Infection Relative to Appropriate DMSO Control with Avg Background Subtraction,"SARS2; Exp 3 (SMW478), 1 uM, Greiner Celigo plates",120.13% and 101.31% and 117.84%
same,Percentage Infection Relative to Appropriate DMSO Control with Avg Background Subtraction,"SARS2; Exp 3 (SMW478), 5 uM, Greiner Celigo plates",108.72% and 96.17% and 137.98%
same,Percentage Infection Relative to Appropriate DMSO Control with Avg Background Subtraction,"SARS2; Exp 3 (SMW478), 10 uM, Greiner Celigo plates",127.49% and 93.45% and 116.79%
same,Percentage Infection Relative to Appropriate DMSO Control with Avg Background Subtraction,"SARS2; Exp 3 (SMW478), 25 uM, Greiner Celigo plates",164.75% and 165.91% and 139.33%
same,Percentage Infection Relative to Appropriate DMSO Control with Avg Background Subtraction,"SARS2; Exp 3 (SMW478), 50 uM, Greiner Celigo plates",145.01% and 171.02% and 138.34%
same,Percentage Inhibition Average 1 μM,SARS2,−5.55%
same,Screening data (Relative infection to DMSO controls) Average 1 μM,SARS2,105.55
same,Percentage Inhibition Average 5 μM,SARS2,−12.81%
same,Screening data (Relative infection to DMSO controls) Average 5 μM,SARS2,112.81
same,Percentage Inhibition Average 10 μM,SARS2,−21.29%
same,Screening data (Relative infection to DMSO controls) Average 10 μM,SARS2,121.29
same,Percentage Inhibition Average 25 μM,SARS2,−13.76%
same,Screening data (Relative infection to DMSO controls) Average 25 μM,SARS2,113.76
same,Percentage Inhibition Average 50 μM,SARS2,0.62%
same,Screening data (Relative infection to DMSO controls) Average 50 μM,SARS2,99.38
same,Average (relative infection to DMSO over the 5 tested concentrations),SARS2,110.56
same,"Infection Data, Average, Mean","SARS2; average of Exp 1-3 (SMW475, SMW477, SMW478), n 9, 1 uM",105.55%
same,"Infection Data, Average, Mean","SARS2; average of Exp 1-3 (SMW475, SMW477, SMW478), n 9, 5 uM",112.81%
same,"Infection Data, Average, Mean","SARS2; average of Exp 1-3 (SMW475, SMW477, SMW478), n 9, 10 uM",121.29%
same,"Infection Data, Average, Mean","SARS2; average of Exp 1-3 (SMW475, SMW477, SMW478), n 9, 25 uM",113.76%
same,"Infection Data, Average, Mean","SARS2; average of Exp 1-3 (SMW475, SMW477, SMW478), n 9, 50 uM",99.38%
CN(C)CCN(Cc1ccccc1)Cc1cc(C#CCO)cs1 [SILCS5],"Relative cell count to DMSO controls, Average 1 μM",cells (nuclei count),113.75
same,"Relative cell count to DMSO controls, Average 5 μM",cells (nuclei count),108.79
same,"Relative cell count to DMSO controls, Average 10 μM",cells (nuclei count),102.76
same,"Relative cell count to DMSO controls, Average 25 μM",cells (nuclei count),105.3
same,"Relative cell count to DMSO controls, Average 50 μM",cells (nuclei count),75.59
same,"Toxicity Data, Average, Mean (relative to DMSO control)","cells (nuclei count); Average of Exp 1-3, 1 uM",113.75%
same,"Toxicity Data, Average, Mean (relative to DMSO control)","cells (nuclei count); Average of Exp 1-3, 5 uM",108.79%
same,"Toxicity Data, Average, Mean (relative to DMSO control)","cells (nuclei count); Average of Exp 1-3, 10 uM",102.76%
same,"Toxicity Data, Average, Mean (relative to DMSO control)","cells (nuclei count); Average of Exp 1-3, 25 uM",105.30%
same,"Toxicity Data, Average, Mean (relative to DMSO control)","cells (nuclei count); Average of Exp 1-3, 50 uM",75.59%
same,"Relative cell count to DMSO controls, Average (for correlation analysis)",cells (nuclei count),101.24
same,"Percentage Infection Relative to DMSO Control, Average, Mean",SARS2,75.63% and 81.28% and 98.58% and 104.84% and 111.97%
same,Percentage Inhibition Average 1 μM,SARS2,−11.97%
same,Screening data (Relative infection to DMSO controls) Average 1 μM,SARS2,111.97
same,Percentage Inhibition Average 5 μM,SARS2,−4.84%
same,Screening data (Relative infection to DMSO controls) Average 5 μM,SARS2,104.84
same,Percentage Inhibition Average 10 μM,SARS2,1.42%
same,Screening data (Relative infection to DMSO controls) Average 10 μM,SARS2,98.58
same,Percentage Inhibition Average 25 μM,SARS2,18.72%
same,Screening data (Relative infection to DMSO controls) Average 25 μM,SARS2,81.28
same,Percentage Inhibition Average 50 μM,SARS2,24.37%
same,Screening data (Relative infection to DMSO controls) Average 50 μM,SARS2,75.63
same,Average (relative infection to DMSO over the 5 tested concentrations),SARS2,94.46
CCN(CC)CCN(Cc1ccccn1)C(=O)c1cccs1 [SILCS37],"Relative cell count to DMSO controls, Average 1 μM",cells (nuclei count),108.95
same,"Relative cell count to DMSO controls, Average 5 μM",cells (nuclei count),110.16
same,"Relative cell count to DMSO controls, Average 10 μM",cells (nuclei count),116.31
same,"Relative cell count to DMSO controls, Average 25 μM",cells (nuclei count),104.07
same,"Relative cell count to DMSO controls, Average 50 μM",cells (nuclei count),75.29
same,"Toxicity Data, Average, Mean percentage relative to DMSO control","cells (nuclei count); n=4, 1 uM",108.95%
same,"Toxicity Data, Average, Mean percentage relative to DMSO control","cells (nuclei count); n=4, 5 uM",110.16%
same,"Toxicity Data, Average, Mean percentage relative to DMSO control","cells (nuclei count); n=4, 10 uM",116.31%
same,"Toxicity Data, Average, Mean percentage relative to DMSO control","cells (nuclei count); n=4, 25 uM",104.07%
same,"Toxicity Data, Average, Mean percentage relative to DMSO control","cells (nuclei count); n=4, 50 uM",75.29%
same,"Relative cell count to DMSO controls, Average (for correlation analysis)",cells (nuclei count),102.96
same,Percentage Infection Relative to Appropriate DMSO Control with Avg Background Subtraction,"SARS2; Exp 1 (SMW491), 1 uM, Nunc Celigo plates",88.98% and 80.18%
same,Percentage Infection Relative to Appropriate DMSO Control with Avg Background Subtraction,"SARS2; Exp 1 (SMW491), 5 uM, Nunc Celigo plates",95.46% and 97.68%
same,Percentage Infection Relative to Appropriate DMSO Control with Avg Background Subtraction,"SARS2; Exp 1 (SMW491), 10 uM, Nunc Celigo plates",109.85% and 92.25%
same,Percentage Infection Relative to Appropriate DMSO Control with Avg Background Subtraction,"SARS2; Exp 1 (SMW491), 25 uM, Nunc Celigo plates",117.51% and 105.36%
same,Percentage Infection Relative to Appropriate DMSO Control with Avg Background Subtraction,"SARS2; Exp 1 (SMW491), 50 uM, Nunc Celigo plates",136.02% and 127.57%
same,Percentage Infection Relative to Appropriate DMSO Control with Avg Background Subtraction,"SARS2; Exp 2 (SMW492), 1 uM, Nunc Celigo plates",80.82% and 84.84%
same,Percentage Infection Relative to Appropriate DMSO Control with Avg Background Subtraction,"SARS2; Exp 2 (SMW492), 5 uM, Nunc Celigo plates",71.36% and 74.06%
same,Percentage Infection Relative to Appropriate DMSO Control with Avg Background Subtraction,"SARS2; Exp 2 (SMW492), 25 uM, Nunc Celigo plates",121.75% and 63.91%
same,Percentage Infection Relative to Appropriate DMSO Control with Avg Background Subtraction,"SARS2; Exp 2 (SMW492), 50 uM, Nunc Celigo plates",88.75% and 46.65%
same,Percentage Inhibition Average 1 μM,SARS2,16.29%
same,Screening data (Relative infection to DMSO controls) Average 1 μM,SARS2,83.71
same,Percentage Inhibition Average 5 μM,SARS2,15.36%
same,Screening data (Relative infection to DMSO controls) Average 5 μM,SARS2,84.64
same,Percentage Inhibition Average 10 μM,SARS2,23.94%
same,Screening data (Relative infection to DMSO controls) Average 10 μM,SARS2,76.06
same,Percentage Inhibition Average 25 μM,SARS2,−2.13%
same,Screening data (Relative infection to DMSO controls) Average 25 μM,SARS2,102.13
same,Percentage Inhibition Average 50 μM,SARS2,0.25%
same,Screening data (Relative infection to DMSO controls) Average 50 μM,SARS2,99.75
same,Average (relative infection to DMSO over the 5 tested concentrations),SARS2,89.26
same,"Infection Data, Average, Mean","SARS2; average of Exp 1-2 (SMW491, SMW492), n 4, 1 uM",83.71%
same,"Infection Data, Average, Mean","SARS2; average of Exp 1-2 (SMW491, SMW492), n 4, 5 uM",84.64%
same,"Infection Data, Average, Mean","SARS2; average of Exp 1-2 (SMW491, SMW492), n 4, 10 uM",76.06%
same,"Infection Data, Average, Mean","SARS2; average of Exp 1-2 (SMW491, SMW492), n 4, 25 uM",102.13%
same,"Infection Data, Average, Mean","SARS2; average of Exp 1-2 (SMW491, SMW492), n 4, 50 uM",99.75%
